Measurements: patent publication US20210369787A1, “ADIPOCYTE MEDIATED DELIVERY OF ANTICANCER THERAPEUTICS” (NORTH CAROLINA STATE UNIVERSITY, priority 2018, published 2021)

Tests used:
[1] = system: 3T3-L1 cell-differentiated adipocytes; experiment: Lipid accumulation in adipocytes, Oil Red O staining; assay type: cell-based; conditions: for lipid accumulation in adipocytes: added during 3T3-L1 differentiation, oil red staining
Procedure: Lipid accumulation in adipocytes was evaluated by Oil Red 0 staining and quantified by optical density measurement at 540 nm. Preadipocytes were cultured, differentiated, and drug encapsulated in 6-well transwell insert, and co-cultured with 5*10^5 pre-cultured B16F10 or fibroblasts in 6 well plate to determine drug release profiles, which was calculated according to drug amount remained in adipocytes. Concentration of free fatty acid in co-cultured medium was measured using Free Fatty Acid Quantitation Kit (Sigma-Aldrich, catalog no. MAK044). […] Then, 100 μL extraction solution (0.75 M HCl in isopropanol) was added and incubated at −20° C. overnight. The fluorescence of supernatant at 498(excitation)/591(emission) nm was measured after centrifugation at 20000 g for 15 min. The maintenance medium was changed three to four times for animal work.

FABP4 [2] = biological target: FABP4 (Homo sapiens, UniProt P15090); experiment: Fluorescence polarization binding of Dox or pDox to FABP4
Procedure: Fluorescence polarization was measured using QuantaMaster 40 UV/VIS Steady State Spectrofluorometer (Photon Technology International). The dissociation constant (Kd) was calculated for each by fitting the observed polarization ([mP]) to a general equation for two state binding as previously described.2

B16F10 cells [3] = experiment: Transwell co-culture of loaded adipocytes with B16F10, MTT; assay type: cell-based, mouse
Procedure: Cytotoxicity of drug and fatty acid was determined by MTT assay in 96-well plate after 48 h. Tumor cell killing or promoting effect of drug or fatty acid loaded adipocytes was determined in a transwell system where adipocytes were seeded in the 24 well plate and tumor cells grew in the transwell insert. After culturing for 72 h, cell proliferation of cancer cells in the transwell insert was determined by MTT assay.
(§1) For Western blot, flow cytometry, and adipokine profiling (R&D Systems catalog no. ARY013), 6 well transwell system was used with cancer cells cultured in the transwell insert and adipocytes in the bottom. Cells or medium were analyzed after co-culturing for 72 h. To determine the role of FABP4 during the crosstalk, 30 μM BMS309403 was added in the medium to block FABP4. Antibodies used for Western blot included β-actin (catalog no. sc-47778, Santa Cruz), FABP4 (catalog no. 701158, Thermo Fisher), PD-L1 (catalog no. ab205921, Abcam). PE channel was used to determine pDox fluorescence in adipocytes and cancer cells.

PD-L1 = PD-L1 expression of B16F10 in transwell system, Western blot; assay type: cell-based, mouse
Procedure: as §1

B16F10 cells [4] = experiment: pDox uptake and transport from adipocytes to B16F10 in transwell, flow cytometry; assay type: cell-based, mouse
Procedure: as §1

FABP4 [5] = experiment: FABP4 amount in B16F10 cells after transwell co-culture, Western blot; assay type: cell-based, mouse
Procedure: as §1

FABP4 (Homo sapiens, UniProt P15090), sequence (P15090 whole entry, species assumed): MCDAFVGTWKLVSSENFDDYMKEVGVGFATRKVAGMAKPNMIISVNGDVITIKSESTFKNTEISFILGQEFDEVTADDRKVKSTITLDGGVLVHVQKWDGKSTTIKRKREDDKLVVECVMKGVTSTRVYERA

SMILES | effect on inhibition of lipid droplet formation by Dox and pDox ([1]; RA added during differentiation) | lipid accumulation in adipocytes [1] | specific binding to FABP4 (FABP4 [2]) | effect on cytotoxicity of pDox from adipocytes to B16F10 cells (B16F10 cells [3]; BMS309403 added to transwell medium (30 μM)) | effect on cell killing by pDox+RA@adipocytes (B16F10 cells [3]; FABP4 inhibitor in transwell medium) | effect on PD-L1 suppression by RA@adipocytes and CLA@adipocyte (PD-L1) | effect on uptake of pDox in adipocytes (B16F10 cells [4]; during pDox absorption) | effect on RA@adipocyte-promoted pDox uptake (B16F10 cells [4]; transwell co-culture) | effect on transportation of pDox from adipocytes to B16F10 cells (B16F10 cells [4]; transwell, flow cytometry) | effect on adipocyte-induced rise of FABP4 in B16F10 cells (FABP4 [5])
CCCCCC/C=C/C=C\CCCCCCCC(=O)O [RA, 9Z, 11E-conjugated linoleic acid] | partially reversed | enhance lipid accumulation | – | – | – | – | – | – | – | –
COc1cccc2c1C(=O)c1c(O)c3c(c(O)c1C2=O)C[C@@](O)(C(=O)CO)C[C@@H]3O[C@H]1C[C@H](N)[C@H](O)[C@H](C)O1 [Dox, doxorubicin] | – | significantly inhibited | almost no specific binding | – | – | – | – | – | – | –
CCc1c(-c2ccccc2)c(-c2ccccc2)nn1-c1ccccc1-c1cccc(OCC(=O)O)c1 [BMS309403] | – | – | – | partially reversed | partially reversed | partially reversed | did not affect | inhibited | partially inhibited | inhibit
